Results reported in patent publication US9151743B2, “Use of EEF1A as biomarker and a method of screening MetAP2 inhibitors” (MERCK PATENT GMBH, priority 2008, dated 2015).

Key:
[1] = system: bEND3, HT1080, HCT116 cells (EEF1A1 Band 2); assay: IEF separation of cellular extracts after MetAP2 inhibitor treatment, Coomassie Blue staining; type: cell-based, mouse, human; conditions: 100 nM TNP-470; 1 μM A-832234; versus DMSO-treated cells
Method: (§1) Cellular extracts were electrophoretically separated for detailed analysis. Isoelectric focusing electrophoresis was performed in a gradient range of pH 7-9. The IEF gels (CleanGel IEF ultra ETC1001-52 from ETC, Germany) were re-hydrated in 7 M urea, 2 M thiourea, 1% DTE, 4% CHAPS, 3%, Servalyte 7-9 for 120 min, and assembled on a Multiphor II electrophoresis unit (GE Healthcare). Samples (5 μl) were applied close to the anode and run with anode buffer (6 M glycine) and cathode fluid 10 (Serva, Germany). […] Separation was performed at 2000 V for 210 min, followed by band sharpening at 2500 V for 10 min. After removal the gel was equilibrated in transfer buffer (50 mM Tris-HCl pH 7.5, 4 M guanidinium chloride, 1 mg/ml DTT) for a diffusion blot onto PVDF membrane and run overnight. Subsequently, the membrane was stained either with Coomassie Blue or immunostained with rabbit PcAb anti-human EEF1A1 (Proteintech Group, USA; 11402-1-AP) for 3 h and detected with ECL-Plus reagent (GE Healthcare).
IEF separation of cellular extracts after treatment of different endothelial and cancer cells (mouse: bEND3, human: HT1080, HCT116) was performed in a range of pH 7-9 (FIG. 1). Comparing extracts from DMSO-treated and MetAP2 inhibitor-treated (100 nM TNP-470; […] . A zoomed view is shown in FIG. 2.

EEF1A1 in bEND3 cells = assay: EEF1A1 electrophoretic mobility shift in IEF gel, bEND3 cell extracts; type: cell-based, mouse; conditions: for EEF1A1 mobility shift versus negative controls (FIG. 10): bEND3 cells, 48 h, concentrations of Table 1
Method: as §1
The compounds used were characterized as inhibitors of MetAP2 and inhibitors of HUVEC cell proliferation with the indicated potencies (IC50).

MetAP2 = MetAP2 (Homo sapiens, UniProt P50579); assay: Inhibition of MetAP2 activity: cleavage of tripeptide Met-Ala-Ser, enzyme-coupled detection of methionine; type: biochemical
MetAP2, sequence (P50579 whole entry, species assumed): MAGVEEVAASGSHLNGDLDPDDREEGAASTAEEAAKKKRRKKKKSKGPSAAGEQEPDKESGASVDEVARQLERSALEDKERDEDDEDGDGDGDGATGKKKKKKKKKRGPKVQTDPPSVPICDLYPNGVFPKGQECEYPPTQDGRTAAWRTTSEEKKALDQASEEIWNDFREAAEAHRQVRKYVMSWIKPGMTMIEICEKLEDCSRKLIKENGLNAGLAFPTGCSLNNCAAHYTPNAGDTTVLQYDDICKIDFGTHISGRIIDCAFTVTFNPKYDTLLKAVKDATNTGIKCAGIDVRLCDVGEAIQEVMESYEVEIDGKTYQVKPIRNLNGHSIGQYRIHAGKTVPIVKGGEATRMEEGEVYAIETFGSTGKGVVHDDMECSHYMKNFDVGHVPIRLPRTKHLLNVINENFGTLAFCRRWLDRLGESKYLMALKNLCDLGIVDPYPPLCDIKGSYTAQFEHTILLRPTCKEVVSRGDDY

HUVEC endothelial cells = assay: Inhibition of HUVEC cell proliferation (colorimetric BrdU-Elisa); conditions: Homo sapiens, 72 h, read-out: Inhibition of HUVEC proliferation (BrdU incorporation) (IC50)
Method: In this case the compounds were incubated in serial dilutions with the HUVEC endothelial cells for 72 h and subsequently processed for BrdU detection.

CCN(CC)C/C=C\c1cc(F)ccc1S(=O)(=O)Nc1ccc2c(c1C(=O)O)CCCC2 [Compound A-832234, 2-[2-((Z)-3-Diethylamino-propenyl)-4-fluoro-benzenesulfonylamino]-5,6,7,8-tetrahydro-naphthalene-1-carboxylic acid]
new protein band (Band 2) after IEF pH 7-9 [1]: a novel protein band
EEF1A1 mobility shift versus negative controls (FIG. 10) (EEF1A1 in bEND3 cells): active MetAP2 inhibitors

CO[C@@H]1[C@H](OC(=O)NC(=O)CCl)CC[C@]2(CO2)[C@H]1[C@@]1(C)O[C@@H]1CC=C(C)C [TNP470]
IC50 (MetAP2): 14 nM
new protein band (Band 2) after IEF pH 7-9 [1]: a novel protein band
EEF1A1 mobility shift, time course (EEF1A1 in bEND3 cells; bEND3 cell extract, TNP470, up to 48 h): a second band (Band 2) with increasing intensity was already to be seen after 2 h
EEF1A1 mobility shift versus negative controls (FIG. 10) (EEF1A1 in bEND3 cells): active MetAP2 inhibitors
IC50 (HUVEC endothelial cells): 0.1 nM
